{
  "source": "patent US12006321B2",
  "about": "“Substituted pyrazolo[1,5-a]pyrimidines as apelin receptor agonists” (Sanford Burnham Prebys Medical Discovery Institute, priority 2017, dated 2024)",
  "data": [
    {"biological_target": "T1, human apelin receptor (APJ, APLNR) (Homo sapiens, UniProt P35414)", "T1 construct": "host or cells: Chinese hamster ovary (CHO) cells, stably integrated receptor", "T1 sequence (P35414 1-380)": "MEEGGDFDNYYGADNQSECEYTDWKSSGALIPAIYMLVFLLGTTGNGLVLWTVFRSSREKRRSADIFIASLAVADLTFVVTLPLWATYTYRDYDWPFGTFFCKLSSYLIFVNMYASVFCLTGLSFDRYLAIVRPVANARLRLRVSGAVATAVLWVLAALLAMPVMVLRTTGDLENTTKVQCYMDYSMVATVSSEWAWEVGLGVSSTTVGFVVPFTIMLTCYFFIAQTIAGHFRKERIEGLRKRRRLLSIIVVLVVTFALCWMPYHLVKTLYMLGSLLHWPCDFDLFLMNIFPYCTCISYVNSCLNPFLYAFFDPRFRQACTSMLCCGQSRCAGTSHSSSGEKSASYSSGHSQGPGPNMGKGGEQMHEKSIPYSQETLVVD", "assay": "cell-based cAMP assay (TR-FRET) in Chinese hamster ovary cells expressing the apelin receptor", "conditions": "EC50 = 50% of control (apelin-13, 1 nM) response; cAMP in CHO cells, 0.5 h incubation; read-out: Potency Category", "procedure": "This example illustrates the biological activity of various compounds tested against the APJ receptor.\nCommercially available cell lines were used to screen chemical libraries to identify compounds that potently and selectively activated the human apelin receptor. The assays disclosed herein were performed using cell lines from DiscoveX, Inc.\nBiological activity was determined to the cell-based assay. This assay detects activation of the receptor by reporting on intracellular cyclic adenosine monophosphate (cAMP) level. Chinese hamster ovary cells engineered to express the stably integrated human appellant receptor (APJ, AGTRL-one, APLNR), pleaded into the wells of the microtiter plate. Cells were stimulated with […] to increase intracellular cyclic AMP. Immediately following, compounds were added to the range of final concentrations 0.0-100 μM, in DMSO (not to exceed a final DMSO concentration greater than 1% v/v), and allowed to incubate with the cells for 0.5 h. At the end of the incubation, cells were lysed to stop APJ signaling and cAMP was quantified using a commercially available competitive immunoassay kit that applies homogenous time-resolved florescence energy transfer (TR-FRET). The assay is based on the competition between a europium (Eu) chelate-labeled cAMP donor tracer and cellular cAMP for binding sites on a cAMP-specific monoclonal antibody labeled with an acceptor fluorophore. When antibodies are bound to the cAMP tracer light emissions at 320 nm stimulate the energy transfer from the donor to the acceptor, which in turn emits light at 665 nm. In the presence of competitive unlabeled cAMP (derived from the activity of the receptor or forskolin-stimulated production of cAMP), the labelled cAMP tracer is dissociated from the cAMP antibody, resulting in a loss of FRET signal. The amount of light emitted by the FRET is inversely proportional to the cAMP generated by the cell/receptor system. Potency and efficacy at APJ are reported in reference to the canonical APJ receptor agonist apelin-13 when tested at 1 nM.\nCompound competency is reported as the effective concentration required to effect 50% (EC 50) of the control (apelin—13, 1 nM) response in micromole are (μM) units. Compound efficacy (% response) is reported as a percentage of the maximal apein-13 response at 1 nM (control). Potencies were calculated by fitting a four-point logistic curve to concentration response consisting of at least 10 discrete data points spanning effective range of the compounds in the cell-based assay that measures cAMP. In Table 1, the Potency Categories are A, B, C and D. Category A EC50>500 nM; Category B 200<EC50<500 nM; Category C 100<EC50<200 nM; Category D<100 nM.", "units": {"EC50": "µM"}, "values": [
      {"smiles": "COC(=O)c1cc(C(C)(C)C)n2nc(C)c(-c3ccccc3)c2n1", "note": "[Compound 1, methyl 7-(tert-butyl)-2-methyl-3-phenyl-8-hydropyrazolo[1,5-a]pyrimidine-5-carboxylate]", "EC50": "> 0.5"},
      {"smiles": "Cc1nn2c(C(C)(C)C)cc(C(=O)O)nc2c1-c1ccccc1", "note": "[Compound 2, 7-(tert-butyl)-2-methyl-3-phenyl-8-hydropyrazolo[1,5-a]pyrimidine-5-carboxylic acid]", "EC50": "> 0.5"},
      {"smiles": "Cc1nn2c(C(C)C)cc(C(=O)O)nc2c1-c1ccccc1", "note": "[Compound 3, 2-methyl-7-(methylethyl)-3-phenyl-8-hydropyrazolo[1,5-a]pyrimidine-5-carboxylic acid]", "EC50": "> 0.5"},
      {"smiles": "Cc1nn2c(C)cc(C(=O)O)nc2c1-c1ccccc1", "note": "[Compound 4, 2,7-dimethyl-3-phenyl-8-hydropyrazolo[1,5-a]pyrimidine-5-carboxylic acid]", "EC50": "> 0.5"},
      {"smiles": "Cc1ccc(-c2c(C)nn3c(C(C)C)cc(C(=O)O)nc23)cc1", "note": "[Compound 5, 2-methyl-7-(methylethyl)-3-(4-methylphenyl)-8-hydropyrazolo[1,5-a]pyrimidine-5-carboxylic acid]", "EC50": "> 0.5"},
      {"smiles": "Cc1nn2c(C3CC3)cc(C(=O)O)nc2c1-c1ccccc1", "note": "[Compound 6, 7-cyclopropyl-2-methyl-3-phenyl-8-hydropyrazolo[1,5-a]pyrimidine-5-carboxylic acid]", "EC50": "> 0.5"},
      {"smiles": "CC(C)c1cc(C(=O)O)nc2c(-c3ccccc3)cnn12", "note": "[Compound 7, 7-(methylethyl)-3-phenyl-8-hydropyrazolo[1,5-a]pyrimidine-5-carboxylic acid]", "EC50": "> 0.5"},
      {"smiles": "Cc1nn2c(C(C)C)cc(C(=O)O)nc2c1-c1ccc(F)cc1", "note": "[Compound 8, 3-(4-fluorophenyl)-2-methyl-7-(methylethyl)-8-hydropyrazolo[1,5-a]pyrimidine-5-carboxylic acid]", "EC50": "> 0.5"},
      {"smiles": "COc1ccc(-c2c(C)nn3c(C(C)C)cc(C(=O)O)nc23)cc1", "note": "[Compound 9, 3-(4-methoxyphenyl)-2-methyl-7-(methylethyl)-8-hydropyrazolo[1,5-a]pyrimidine-5-carboxylic acid]", "EC50": "> 0.5"},
      {"smiles": "COc1ccc(-c2c(C)nn3c(C(=O)O)cc(C(C)C)nc23)cc1", "note": "[Compound 10, 3-(4-methoxyphenyl)-2-methyl-5-(methylethyl)-8-hydropyrazolo[1,5-a]pyrimidine-7-carboxylic acid]", "EC50": "> 0.5"},
      {"smiles": "CCOC(=O)c1cc(C(C)C)n2nc(C3CC3)c(-c3ccccc3)c2n1", "note": "[Compound 11, ethyl 2-cyclopropyl-7-(methylethyl)-3-phenyl-8-hydropyrazolo[1,5-a]pyrimidine-5-carboxylate]", "EC50": "> 0.5"},
      {"smiles": "CC(C)c1cc(C(=O)O)nc2c(-c3ccccc3)c(C3CC3)nn12", "note": "[Compound 12, 2-cyclopropyl-7-(methylethyl)-3-phenyl-8-hydropyrazolo[1,5-a]pyrimidine-5-carboxylic acid]", "EC50": "> 0.5"},
      {"smiles": "CCc1nn2c(C(C)C)cc(C(=O)O)nc2c1-c1ccccc1", "note": "[Compound 13, 2-ethyl-7-(methylethyl)-3-phenyl-8-hydropyrazolo[1,5-a]pyrimidine-5-carboxylic acid]", "EC50": "> 0.5"},
      {"smiles": "Cc1nn2c(C(C)C)cc(C(N)=O)nc2c1-c1ccccc1", "note": "[Compound 14, 2-methyl-7-(methylethyl)-3-phenyl-8-hydropyrazolo[1,5-a]pyrimidine-5-carboxamide]", "EC50": "> 0.5"},
      {"smiles": "CNC(=O)c1cc(C(C)C)n2nc(C)c(-c3ccccc3)c2n1", "note": "[Compound 15, N-methyl[2-methyl-7-(methylethyl)-3-phenyl(8-hydropyrazolo[1,5-a]pyrimidin-5-yl)]carboxamide]", "EC50": "> 0.5"},
      {"smiles": "Cc1nn2c(C(C)C)cc(C(=O)N(C)C)nc2c1-c1ccccc1", "note": "[Compound 16, N,N-dimethyl[2-methyl-7-(methylethyl)-3-phenyl(8-hydropyrazolo[1,5-a]pyrimidin-5-yl)]carboxamide]", "EC50": "> 0.5"},
      {"smiles": "CCOC(=O)c1cc(C(C)C)n2nc(C)c(-c3cccc(OC)c3)c2n1", "note": "[Compound 18, ethyl 3-(3-methoxyphenyl)-2-methyl-7-(methylethyl)-8-hydropyrazolo[1,5-a]pyrimidine-5-carboxylate]", "EC50": "> 0.5"},
      {"smiles": "CCOC(=O)c1cc(C(C)C)n2nc(C)c(-c3ccccc3Cl)c2n1", "note": "[Compound 19, ethyl 3-(2-chlorophenyl)-2-methyl-7-(methylethyl)-8-hydropyrazolo[1,5-a]pyrimidine-5-carboxylate]", "EC50": "> 0.5"},
      {"smiles": "Cc1ccccc1-c1c(C)nn2c(C(C)C)cc(C(=O)O)nc12", "note": "[Compound 20, 2-methyl-7-(methylethyl)-3-(2-methylphenyl)-8-hydropyrazolo[1,5-a]pyrimidine-5-carboxylic acid]", "EC50": "0.1 to 0.2"},
      {"smiles": "Cc1nn2c(C(C)C)cc(C(=O)O)nc2c1-c1ccccc1Cl", "note": "[Compound 21, 3-(2-chlorophenyl)-2-methyl-7-(methylethyl)-8-hydropyrazolo[1,5-a]pyrimidine-5-carboxylic acid]", "EC50": "> 0.5"},
      {"smiles": "COc1cccc(-c2c(C)nn3c(C(C)C)cc(C(=O)O)nc23)c1", "note": "[Compound 22, 3-(3-methoxyphenyl)-2-methyl-7-(methylethyl)-8-hydropyrazolo[1,5-a]pyrimidine-5-carboxylic acid]", "EC50": "> 0.5"},
      {"smiles": "CCOC(=O)c1cc(C(C)C)n2nc(C)c(-c3ccccc3F)c2n1", "note": "[Compound 23, ethyl 3-(2-fluorophenyl)-2-methyl-7-(methylethyl)-8-hydropyrazolo[1,5-a]pyrimidine-5-carboxylate]", "EC50": "> 0.5"},
      {"smiles": "CC1=NC2C(C(C)C)=CC(C(=O)O)=NC2=C1c1ccccc1F", "note": "(centres unmarked) [Compound 24, 3-(2-fluorophenyl)-2-methyl-7-(methylethyl)-8-hydropyrazolo[1,5-a]pyrimidine-5-carboxylic acid]", "EC50": "> 0.5"},
      {"smiles": "CCOC(=O)c1cc(C(C)C)n2nc(C)c(-c3cccc(F)c3)c2n1", "note": "[Compound 25, ethyl 3-(3-fluorophenyl)-2-methyl-7-(methylethyl)-8-hydropyrazolo[1,5-a]pyrimidine-5-carboxylate]", "EC50": "> 0.5"},
      {"smiles": "Cc1nn2c(C(C)C)cc(C(=O)O)nc2c1-c1cccc(F)c1", "note": "[Compound 26, 3-(3-fluorophenyl)-2-methyl-7-(methylethyl)-8-hydropyrazolo[1,5-a]pyrimidine-5-carboxylic acid]", "EC50": "> 0.5"},
      {"smiles": "CCOC(=O)c1cc(C(C)C)n2nc(C)c(-c3cccc(C)c3)c2n1", "note": "[Compound 27, ethyl 2-methyl-7-(methylethyl)-3-(3-methylphenyl)-8-hydropyrazolo[1,5-a]pyrimidine-5-carboxylate]", "EC50": "> 0.5"},
      {"smiles": "Cc1cccc(-c2c(C)nn3c(C(C)C)cc(C(=O)O)nc23)c1", "note": "[Compound 28, 2-methyl-7-(methylethyl)-3-(3-methylphenyl)-8-hydropyrazolo[1,5-a]pyrimidine-5-carboxylic acid]", "EC50": "> 0.5"},
      {"smiles": "CCOC(=O)c1cc(C(C)C)n2nc(C)c(-c3ccccc3OC)c2n1", "note": "[Compound 29, ethyl 3-(2-methoxyphenyl)-2-methyl-7-(methylethyl)-8-hydropyrazolo[1,5-a]pyrimidine-5-carboxylate]", "EC50": "> 0.5"},
      {"smiles": "CCOC(=O)c1cc(C(C)C)n2nc(C)c(-c3cccc(Cl)c3)c2n1", "note": "[Compound 30, ethyl 3-(3-chlorophenyl)-2-methyl-7-(methylethyl)-8-hydropyrazolo[1,5-a]pyrimidine-5-carboxylate]", "EC50": "> 0.5"}
    ]}
  ]
}
